Reference: paper PMC10327353 (Breast Cancer Research : BCR, 2023)
pIC50: −log10 of the molar value.

Experiments:
BT474C1 cells = assay: Cell proliferation assay (CellTiter-Glo), BT474C1; assay type: cell-based, human; conditions: BT474C1, 72 hrs
Experimental: BT474C1-Luci Mono1 cells were seeded in 384-well plates at 1500 cells/well in DMEM medium containing 10% FBS and 1 mM Oxaloacetic acid (OAA). A431 cells were seeded in 384-well plates at 1,000 cells/well in DMEM medium containing 10% FBS. After overnight incubation, cells were treated with compounds at various concentrations for 3 days. Then cell viability was measured using a CellTiter-Glo Luminescent Cell Viability Assay from Promega Corp. according to the manufacturer's instructions.

HER2 = HER2 (Homo sapiens, UniProt P04626); assay: pHER2 MSD assay in BT474C1 cells; assay type: cell-based; set-up: endogenous in cells; host or cells: BT474C1-Luci Mono1 (BT474 transfected with luciferase only); conditions: BT474C1, 4 hrs treatment
Experimental: (§1) A431 and BT474C1-Luci Mono1 cells were seeded in 96-well plates at 20,000 cells/well in DMEM medium containing 1% FBS. After overnight incubation, all cells were treated with compounds at a series of concentrations for 4 hrs. For A431 cell line, an extra stimulation with recombinant human EGF (100 ng/ml for 10 minutes) is applied to activate wild-type EGFR following compound treatment. pEGFR^Y1068 and total EGFR levels were measured by an electro chemiluminescent method (MULTI-SPOT®96 4-Spot HB Prototype EGFR Triplex […]: pEGFR (Y1068), Total EGFR; MESO SCALE DISCOVERY, Cat# N45ZB-1) with MSD SECTOR® Imager, which outputs the ratio of pEGFR/total EGFR for each well. pHER2^Y1248 and total HER2 levels were measured similarly using pHER2 (Y1248) Assay Whole Cell Lysate Kit (MESO SCALE DISCOVERY, Cat# K151CLD-3). The percentage of inhibition was calculated as: % Inhibition = 100 x [1 - (ratio of the sample well - ratio of Min ctrl well)/ (ratio of Max ctrl well - ratio of Min ctrl well)].

wild-type EGFR = target: T1, wild-type EGFR (Homo sapiens, UniProt P00533); assay: pEGFR MSD assay in A431 cells; assay type: cell-based; conditions: A431, 4 hrs treatment, EGF stimulation
T1 construct: endogenous in cells; host or cells: A431
Experimental: as §1

P-gp (MDR1) = target: T2, P-gp (MDR1) (Homo sapiens, UniProt P08183); assay: P-gp efflux ratio, bi-directional transport assay; assay type: in vitro ADME
T2 construct: expressed in transfected cells; host or cells: MDCKII-MDR1
Text: Passive permeability (Papp) characterizes the rate across the cell membrane due to passive diffusion. A high permeability enables the rapid establishment of equilibrium among plasma, CSF, and brain compartments. Except for passive permeability, sufficient unbound drug concentration in the brain is governed by efflux transporters, including P-gp (MDR1, ABCB1) and BCRP, at BBB. Efflux ratio (ER) reflects the liability of a compound to be pumped out of the brain by BBB efflux transporters, which is indicated by the distribution disequilibrium between the plasma and the brain compartments.
[…] The adjusted efflux ratio was used to determine if DZD1516/DZ2678 underwent active efflux. Verapamil, a P-glycoprotein (P-gp) inhibitor, was used to identify if any active transport processes were mediated through P-gp. The apical-to-basolateral (A-B) and basolateral-to-apical (B-A) transport of DZD1516/DZ2678 in HBSS (25 mM HEPES, pH 7.4) with 0.1% BSA was measured across MDCKII-MDR1 cell monolayers in the absence and presence of the P-gp inhibitor, verapamil (100 μM). The apical-to-basolateral (A-B) and basolateral-to-apical (B-A) transport of DZD1516/DZ2678 in HBSS (25 mM HEPES, pH 7.4) with 0.1% BSA was also measured across MDCKII cell monolayers in the absence and presence of the P-gp inhibitor, verapamil. Incubations were performed at approximately 37°C for 120 min, with the functionality of the test system being confirmed using 5 μM digoxin as a positive control substrate. […] determined by quantifying substrate concentration in the incubation medium of the donor compartment at the beginning of the incubation period and both donor and receiver compartments at the end of the incubation period. The data was used to calculate the apparent permeability (Papp). All incubations were performed in triplicate, and the integrity of the cell monolayers was confirmed using the marker Lucifer yellow.

[1] = Human hepatocyte intrinsic clearance; assay type: in vitro ADME; conditions: human hepatocytes; for hepatocyte CLint: read-out: Human Heps Clint
P-gp-BCRP = P-gp-BCRP efflux ratio, cellular transport assay; assay type: in vitro ADME, human; conditions: human, not told; 1 µM
Experimental: A discussion of the structure–activity relationship (SAR) cumulated in the design of DZD1516 (Fig. 1) is as follows. The HER2 inhibitory potency screening for SAR development was performed using HER2 and EGFR enzymatic assays. The cellular activity was evaluated in HER2+ cell line BT474C1 by measuring pHER2 and antiproliferation activities. Cellular transport assays measuring the permeability and efflux ratio of compounds in cells expressing human P-gp (MDR1) and BCRP were used to provide essential information for assessing their BBB penetration potential.

HER2, sequence (P04626 23-1255): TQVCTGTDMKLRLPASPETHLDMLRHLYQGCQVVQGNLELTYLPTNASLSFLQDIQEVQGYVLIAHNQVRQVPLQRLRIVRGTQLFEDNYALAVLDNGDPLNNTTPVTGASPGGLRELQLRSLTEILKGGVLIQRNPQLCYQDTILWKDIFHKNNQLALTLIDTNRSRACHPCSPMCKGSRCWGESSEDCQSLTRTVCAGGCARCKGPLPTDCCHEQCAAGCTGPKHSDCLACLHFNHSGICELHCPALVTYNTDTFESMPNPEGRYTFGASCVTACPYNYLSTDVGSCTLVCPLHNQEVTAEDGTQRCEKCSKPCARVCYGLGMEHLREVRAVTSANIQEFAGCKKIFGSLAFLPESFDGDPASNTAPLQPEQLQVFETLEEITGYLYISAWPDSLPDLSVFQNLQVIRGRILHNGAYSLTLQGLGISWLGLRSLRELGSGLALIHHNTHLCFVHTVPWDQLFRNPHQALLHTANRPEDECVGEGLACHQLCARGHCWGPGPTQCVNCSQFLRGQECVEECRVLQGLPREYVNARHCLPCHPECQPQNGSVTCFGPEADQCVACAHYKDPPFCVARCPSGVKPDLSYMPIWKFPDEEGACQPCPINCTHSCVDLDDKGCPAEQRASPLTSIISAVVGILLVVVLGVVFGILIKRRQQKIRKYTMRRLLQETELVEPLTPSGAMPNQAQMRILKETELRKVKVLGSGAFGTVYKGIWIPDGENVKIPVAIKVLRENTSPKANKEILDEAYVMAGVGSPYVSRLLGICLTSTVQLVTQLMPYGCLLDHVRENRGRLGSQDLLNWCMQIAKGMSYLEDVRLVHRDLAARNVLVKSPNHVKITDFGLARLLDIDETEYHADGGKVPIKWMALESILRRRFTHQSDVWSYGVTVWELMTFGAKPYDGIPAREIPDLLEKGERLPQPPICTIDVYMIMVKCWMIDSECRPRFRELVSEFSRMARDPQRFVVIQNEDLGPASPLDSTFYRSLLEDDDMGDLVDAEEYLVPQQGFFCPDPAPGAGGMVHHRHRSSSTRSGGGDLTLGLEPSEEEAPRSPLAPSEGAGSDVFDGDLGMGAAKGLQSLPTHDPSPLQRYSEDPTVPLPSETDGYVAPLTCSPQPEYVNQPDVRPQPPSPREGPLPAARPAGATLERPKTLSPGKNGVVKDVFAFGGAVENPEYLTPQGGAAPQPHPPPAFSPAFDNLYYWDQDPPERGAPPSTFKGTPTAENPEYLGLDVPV
T2 sequence (P08183 whole entry): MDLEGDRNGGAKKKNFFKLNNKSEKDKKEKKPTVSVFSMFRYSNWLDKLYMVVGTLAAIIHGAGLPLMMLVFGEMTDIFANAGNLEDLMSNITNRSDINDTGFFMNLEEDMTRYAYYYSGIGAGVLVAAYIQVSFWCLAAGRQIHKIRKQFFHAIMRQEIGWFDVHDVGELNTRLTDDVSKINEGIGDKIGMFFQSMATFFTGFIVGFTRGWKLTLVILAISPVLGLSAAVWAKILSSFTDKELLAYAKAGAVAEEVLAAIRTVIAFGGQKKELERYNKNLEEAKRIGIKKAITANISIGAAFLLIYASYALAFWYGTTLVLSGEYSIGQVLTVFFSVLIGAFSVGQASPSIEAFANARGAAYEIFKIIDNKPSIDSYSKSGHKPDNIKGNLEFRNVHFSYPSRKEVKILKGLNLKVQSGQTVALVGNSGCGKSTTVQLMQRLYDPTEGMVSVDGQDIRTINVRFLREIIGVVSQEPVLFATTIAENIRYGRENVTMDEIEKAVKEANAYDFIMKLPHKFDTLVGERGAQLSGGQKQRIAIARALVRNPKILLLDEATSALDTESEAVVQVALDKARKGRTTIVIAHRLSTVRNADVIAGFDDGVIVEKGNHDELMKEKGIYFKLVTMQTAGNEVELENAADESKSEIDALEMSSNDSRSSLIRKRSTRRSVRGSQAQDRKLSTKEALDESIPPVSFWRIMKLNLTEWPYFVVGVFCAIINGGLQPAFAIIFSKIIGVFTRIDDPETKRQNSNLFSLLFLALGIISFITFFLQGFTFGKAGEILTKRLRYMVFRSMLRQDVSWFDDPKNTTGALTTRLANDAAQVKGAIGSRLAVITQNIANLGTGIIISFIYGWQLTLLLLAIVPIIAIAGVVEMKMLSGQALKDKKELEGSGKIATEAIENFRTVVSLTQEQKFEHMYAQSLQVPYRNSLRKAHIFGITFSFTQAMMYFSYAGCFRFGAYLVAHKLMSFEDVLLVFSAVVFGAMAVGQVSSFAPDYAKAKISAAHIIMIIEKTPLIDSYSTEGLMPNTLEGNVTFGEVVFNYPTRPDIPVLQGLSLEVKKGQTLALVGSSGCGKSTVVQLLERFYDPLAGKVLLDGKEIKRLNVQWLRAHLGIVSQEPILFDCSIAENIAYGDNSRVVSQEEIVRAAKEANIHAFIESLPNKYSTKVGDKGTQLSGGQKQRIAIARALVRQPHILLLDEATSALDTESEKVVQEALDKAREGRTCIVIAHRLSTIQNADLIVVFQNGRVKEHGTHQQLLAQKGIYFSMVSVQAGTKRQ
T1 sequence (P00533 25-1210): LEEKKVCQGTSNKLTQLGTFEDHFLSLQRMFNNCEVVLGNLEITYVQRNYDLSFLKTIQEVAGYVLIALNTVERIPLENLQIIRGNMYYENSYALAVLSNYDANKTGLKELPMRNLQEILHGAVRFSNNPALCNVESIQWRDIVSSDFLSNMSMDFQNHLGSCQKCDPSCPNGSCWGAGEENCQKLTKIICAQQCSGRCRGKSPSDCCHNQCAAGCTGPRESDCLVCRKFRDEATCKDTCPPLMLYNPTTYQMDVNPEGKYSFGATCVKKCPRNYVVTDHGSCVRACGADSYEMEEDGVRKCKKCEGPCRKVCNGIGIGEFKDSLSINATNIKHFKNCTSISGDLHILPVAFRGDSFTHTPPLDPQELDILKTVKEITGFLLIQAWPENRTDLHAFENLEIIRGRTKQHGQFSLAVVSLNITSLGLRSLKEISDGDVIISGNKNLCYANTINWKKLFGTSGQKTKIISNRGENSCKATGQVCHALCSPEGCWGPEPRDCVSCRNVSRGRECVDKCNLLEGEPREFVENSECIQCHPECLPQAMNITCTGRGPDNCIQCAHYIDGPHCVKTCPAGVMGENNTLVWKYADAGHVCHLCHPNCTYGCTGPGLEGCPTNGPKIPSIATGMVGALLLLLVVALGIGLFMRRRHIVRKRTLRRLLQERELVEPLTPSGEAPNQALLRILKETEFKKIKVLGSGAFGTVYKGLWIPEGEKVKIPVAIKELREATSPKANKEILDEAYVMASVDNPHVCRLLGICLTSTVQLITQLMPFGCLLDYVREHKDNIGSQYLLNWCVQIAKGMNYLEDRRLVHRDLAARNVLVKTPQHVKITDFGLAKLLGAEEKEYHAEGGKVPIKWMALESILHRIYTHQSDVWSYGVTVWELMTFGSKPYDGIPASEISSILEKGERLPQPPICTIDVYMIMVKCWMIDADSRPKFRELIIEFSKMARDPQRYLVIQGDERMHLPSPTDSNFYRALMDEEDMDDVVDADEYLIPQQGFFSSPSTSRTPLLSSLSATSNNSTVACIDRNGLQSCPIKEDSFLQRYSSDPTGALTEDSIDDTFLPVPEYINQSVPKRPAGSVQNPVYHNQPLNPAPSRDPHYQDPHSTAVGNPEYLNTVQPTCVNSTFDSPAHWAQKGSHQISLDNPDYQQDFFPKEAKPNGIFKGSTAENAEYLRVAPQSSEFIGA

## CCOc1cc2ncc(C#N)c(Nc3ccc(OCc4ccccn4)c(Cl)c3)c2cc1NC(=O)/C=C/[C@H]1CCCN1C [Pyrotinib, reference compound]
BT474C1 cells; Homo sapiens
  GI50: 0.7 nM
HER2
  pIC50: 9.18

## Cc1cc(Nc2ncnc3ccc(NC4=NC(C)(C)CO4)cc23)ccc1Oc1ccn2ncnc2c1 [Tucatinib, reference compound]
wild-type EGFR
  pIC50: 5.56
P-gp (MDR1); human, MDCK-MDR1, pH 7.4
  efflux ratio at 120 min, 1 µM: 6.2
[1]
  hepatocyte CLint: 12.5 µL/min/1e6 cells
BT474C1 cells; Homo sapiens
  GI50: 10 nM
HER2
  pIC50: 8.77
P-gp-BCRP
  efflux ratio at 1 µM: 64

## CCOc1cc2ncc(C#N)c(Nc3ccc(OCc4ccccn4)c(Cl)c3)c2cc1NC(=O)/C=C/CN(C)C [Neratinib, reference compound]
[1]
  hepatocyte CLint: 7.7 µL/min/1e6 cells
BT474C1 cells; Homo sapiens
  GI50: 1.3 nM

## CS(=O)(=O)CCNCc1ccc(-c2ccc3ncnc(Nc4ccc(OCc5cccc(F)c5)c(Cl)c4)c3c2)o1 [Lapatinib]
BT474C1 cells; Homo sapiens
  GI50: 13 nM

## COc1cc(O[C@@H]2CCN(C)CC2(F)F)c2c(Nc3ccc(Oc4ccn5ncnc5c4)c(C)c3)ncnc2c1 [Cpd-4]
[1]
  Human Heps Clint: 20.1 (µL/min)/(10^6 cells)
BT474C1 cells
  GI50: 67 nM
HER2
  pIC50: 7.36

## Cc1cc(Nc2ncnc3cccc(OC4CCN(C)CC4)c23)ccc1Oc1ccn2ncnc2c1 [Cpd-1]
wild-type EGFR
  pIC50: < 5.00
P-gp (MDR1)
  Efflux ratio P-gp @1 µM: 1.5
BT474C1 cells
  GI50: 91 nM
HER2
  pIC50: 7.74
